In paper PMC8989888, “Development of optimized drug-like small molecule inhibitors of the SARS-CoV-2 3CL protease for treatment of COVID-19” (Nature Communications, 2022):
Several values for one entry are separate records, joined by “and”; a condition that tells them apart may be missing. Equal entries are not always repeated.

Columns and labels:
SARS-CoV-2 3CL protease [1] = molecular target: T1, SARS-CoV-2 3CL protease (Severe acute respiratory syndrome coronavirus 2, UniProt P0DTD1); assay: cell-based
SARS-CoV-2 3CL protease [2] = molecular target: T1, SARS-CoV-2 3CL protease; assay: biochemical; settings: for Normalized SARS-CoV-2 3CL protease activity: 0.2 µM protease with 50 µM tested compound; for Normalized SARS-CoV-2 3CL protease activity / % SARS-CoV-2 3CL activity: replicates; for % SARS-CoV-2 3CL activity / IC50: 20 nM protease; for IC50: read-out: SARS-CoV-2 3CLpro IC50

Compound | Absorbance (crystal violet), SARS-CoV-2 3CLpro (SARS-CoV-2 3CL protease [1]) | Normalized SARS-CoV-2 3CL protease activity (SARS-CoV-2 3CL protease [2]) | % SARS-CoV-2 3CL activity (SARS-CoV-2 3CL protease [2]; log10[nM] 0.19382) | % SARS-CoV-2 3CL activity (SARS-CoV-2 3CL protease [2]; log10[nM] 0.49485) | % SARS-CoV-2 3CL activity (SARS-CoV-2 3CL protease [2]; log10[nM] 0.79588) | % SARS-CoV-2 3CL activity (SARS-CoV-2 3CL protease [2]; log10[nM] 1.09691) | % SARS-CoV-2 3CL activity (SARS-CoV-2 3CL protease [2]; log10[nM] 1.39794) | % SARS-CoV-2 3CL activity (SARS-CoV-2 3CL protease [2]; log10[nM] 1.69897) | % SARS-CoV-2 3CL activity (SARS-CoV-2 3CL protease [2]; log10[nM] 2) | % SARS-CoV-2 3CL activity (SARS-CoV-2 3CL protease [2]; log10[nM] 2.30103) | % SARS-CoV-2 3CL activity (SARS-CoV-2 3CL protease [2]; log10[nM] 2.60206) | % SARS-CoV-2 3CL activity (SARS-CoV-2 3CL protease [2]; log10[nM] 2.90309) [%] | % SARS-CoV-2 3CL activity (SARS-CoV-2 3CL protease [2]; log10[nM] -0.10721) | % SARS-CoV-2 3CL activity (SARS-CoV-2 3CL protease [2]; log10[nM] -0.40824) [%] | IC50 (SARS-CoV-2 3CL protease [2]) [nM]
Cn1ncc(C(=O)Oc2cncc(Cl)c2)c1-n1cccc1 [Z26] | 0.1558 and 0.1505 | 0.2302 and 0.2702 and 0.2695 |  |  |  |  |  |  |  |  |  |  |  |  | 
CC(=O)Nc1ccc(C(=O)Oc2cncc(Cl)c2)cc1 [Z32] | 0.1483 and 0.1499 | 0.07213 and 0.1423 and 0.1862 |  |  |  |  |  |  |  |  |  |  |  |  | 
Cc1ncc(C(=O)Oc2cncc(Br)c2)s1 [Z43] | 0.1361 and 0.1268 | 0.007869 and 0.001311 and 0.005246 | 81.5961% and 71.2676% | 59.9348% and 65.0704% | 59.9348% and 45.6338% | 45.6026% and 45.2113% | 33.0619% and 25.9155% | 9.772% and 20% | -2.443% and 0.9859% | -12.7036% and 7.042% | -11.2378% and 5.775% | 0 | 77.6873% and 77.6056% | 100 | 14
N#CCc1cccc(C(=O)Oc2cncc(Cl)c2)c1 [Z50] | 0.1475 and 0.1394 | 0.05574 and 0.08721 and 0.4348 |  |  |  |  |  |  |  |  |  |  |  |  | 
O=C(Oc1cncc(Br)c1)c1cc2c([nH]c1=O)CCCC2 [Z61] | 0.1155 and 0.1264 | 0.4525 and 0.1738 and 0.3423 |  |  |  |  |  |  |  |  |  |  |  |  | 
CCn1nc(C)c(C(=O)Oc2cncc(Cl)c2)c1Cl [Z65] | 0.1475 and 0.1384 | 0.223 and 0.2216 and 0.2302 |  |  |  |  |  |  |  |  |  |  |  |  | 
Cc1ncsc1C(=O)Oc1cncc(Cl)c1 [Z91] | 0.1428 and 0.134 | 0.02131 and 0.02295 and 0.01967 | 84.3886% and 89.3518% | 71.2882% and 83.5648% | 67.1397% and 68.9815% | 60.4804% and 65.625% | 57.3144% and 59.9537% | 31.5502% and 53.125% | 18.6681% and 32.7546% | 6.9869% and 23.0324% | 2.62% and 4.745% | 0 | 87.0087% and 88.8889% | 100 | 31
